Literature values, collected in patent US20230000786A1, “TREATMENT OF SKIN DISORDERS WITH TOPICAL COMPOSITIONS COMPRISING TAPINAROF AND A PDE4 INHIBITOR” (Sol-Gel Technologies Ltd., priority 2019, published 2023).
Like-named read-outs stand apart in the source and are kept apart here.

Assays:
[1] = test system: proinflammatory mediators, including interleukin-6 and interleukin-17A; settings: mouse models
[2] = test system: proinflammatory mediators, including interleukin-6 and interleukin-17A; settings: in vitro human skin studies
[3] = 1% tapinarof arm compared with 0.5% arm or vehicle
[4] = psoriasis treatment, single drug; placebo 20.2%
[5] = across all groups treated
[6] = interleukin-6 and interleukin-17A

| Compound | skin barrier function [1] | inhibition of specific proinflammatory mediators [1, 6] | skin barrier function [2] | inhibition of specific proinflammatory mediators [2, 6] | efficacy [3] | onset of action [3] | adverse effects [4] [%] | folliculitis side-effect [5] [%] | contact dermatitis side-effect ([5]; listed among most common side-effects (>5%)) [%] |
| --- | --- | --- | --- | --- | --- | --- | --- | --- | --- |
| CC(C)c1c(O)cc(/C=C/c2ccccc2)cc1O [Tapinarof, 3,5-dihydroxy-4-isopropyl-trans-stilbene] | enhance skin barrier function | inhibit specific proinflammatory mediators | enhance skin barrier function | inhibit specific proinflammatory mediators | higher efficacy | quicker onset of action | 44.5 | 9 | > 5 |
| C=C1/C(=C\C=C2/CCC[C@]3(C)[C@@H]([C@H](C)/C=C/[C@@H](O)C4CC4)CC[C@@H]23)C[C@@H](O)C[C@@H]1O [calcipotriene] | – | – | – | – | – | – | 19.5 | – | – |
